Data from US8008325B2, “Plasma carboxypeptidase B inhibitors” (Bayer Schering Pharma AG, priority 2002, dated 2011).
pIC50: −log10 of the molar value.

Assays:
[1] = target: T1, activated plasma carboxypeptidase B (Homo sapiens, UniProt Q96IY4); assay: Assay for activated plasma carboxypeptidase B activity (hippuryl-Arg hydrolysis, colorimetric); assay type: biochemical; conditions: used as positive standard; hippuryl-Arg final 1 mM
T1 sequence (Q96IY4 115-423): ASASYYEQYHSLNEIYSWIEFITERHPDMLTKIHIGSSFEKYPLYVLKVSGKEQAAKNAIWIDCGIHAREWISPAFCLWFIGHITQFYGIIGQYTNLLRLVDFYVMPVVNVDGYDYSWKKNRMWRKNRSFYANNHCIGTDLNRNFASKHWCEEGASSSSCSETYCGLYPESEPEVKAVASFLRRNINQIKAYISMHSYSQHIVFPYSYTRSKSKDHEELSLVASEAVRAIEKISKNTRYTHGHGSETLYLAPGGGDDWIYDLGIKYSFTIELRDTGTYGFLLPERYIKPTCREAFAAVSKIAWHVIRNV
Method: The compounds of the invention were tested in an in vitro assay according to the method described in Hendriks et al., “Colorimetric assay for carboxypeptidase N in serum”, Clinica Chimica Acta (1986), Vol. 157, pp. 103-108 and Zhao et al., “Identification and characterization of two thrombin-activatable fibrinolysis inhibitor isoforms”, Thromb. Haemost. (1998), Vol. 80, pp. 949-955.
Activation of Plasma Carboxypeptidase B:
The following reagents were mixed together at a total volume of 200 μL:
The above mixture was incubated for 15 minutes at ambient temperature. The activation process was stopped by the addition of 2 μl of PPACK, D-Phe-Pro-Arg chloromethylketone (100 μM, final 1.0 μM). The mixture was then diluted 1:36 with the activation buffer containing 0.1% BSA. The resulting diluted mixture was kept on ice. […] The resulting sample mixture was incubated for 2 minutes at ambient temperature. To the sample mixture was added 12 μL of 5 mM hippuryl-Arg (final 1 mM (=Km)). The resulting sample mixture was incubated at ambient temperature for 30 minutes. At the end of the reaction, the product, hippuric acid, in the sample mixture was converted to a chromogen by adding the following to the mixture: • 80 μL of 0.2 M sodium phosphate buffer, pH 8.3 • 60 μL of 3% cyanuric chloride in dioxane (w/v). […] Optical density of the samples was measured at 382 nm.

[2] = target: T2, plasma carboxypeptidase B (Homo sapiens, UniProt Q96IY4); conditions: t-PA-induced lysis; cited from earlier work
T2 sequence (Q96IY4 115-423): T1 sequence (Q96IY4 115-423)

Structure (SMILES): NC(N)=NCCSC(CC(=O)O)C(=O)O (centres unmarked) [GEMSA, guanidinoethyl-mercaptosuccinic acid]
- pIC50 [1]: 4.46
- effect on the inhibitory effect of plasma carboxypeptidase B on clot lysis [2]: blocked the inhibitory effect of plasma carboxypeptidase B on clot lysis
